Tested on: focal adhesion kinase (FAK), TNF
Experiment: FAK phosphorylation and TNF expression in activated PHA T cell blasts
Format: cell-based, human
Details: Mg^2+-restricted conditions
Procedure: FIG. 2: Extracellular magnesium promotes memory-specific activation via LFA-1. Glycolytic switch of human EM CD8 T cells (a) and naïve CD8 T cells (b) subsets upon injection of anti-CD3 Ab only, or anti-CD3 and anti-CD28 Ab, was assessed by metabolic flux analysis in medium containing either 1.2 mM Mg^2+, 0 mM Mg^2+, or medium which was reconstituted from 0 mM to 1.2 mM Mg^2+ immediately prior to activation (0→1.2 mM Mg^2+). (a) Results for human effector memory (EM) and (b) for human naïve CD8 T cells. Glycolytic switch was quantified by subtracting […] measurements. (c) Flow cytometric analysis of surface activation markers on human EM CD8 T cells 24 hours after activation by plate-bound anti-CD3 Ab and soluble anti-CD28 Ab, in 1.2 mM and 0 mM Mg^2+ media, respectively. (d) Abundance of inflammatory cytokines in corresponding EM CD8 T cell culture supernatants, determined by CBA. (e) CD11a (LFA-1) surface expression on human naïve and EM CD8 T cells as well PHA T cell blasts. Flow cytometry-based assessment of total LFA-1 expression assessed by mAb TS2/4 (f), closed conformation of αL by mAb HI111 (g), extended conformation of LFA-1 by mAb Kim127 (h), open head-piece conformation of LFA-1 by mAb m24 (i), phosphorylation of focal adhesion kinase (FAK) […] as well TNF expression (k)±TCR-induced activation in different extracellular Mg^2+ concentrations. […]

## [Mg+2] [Mg^2+, Magnesium]
  Phosphorylation of focal adhesion kinase (FAK): decreased

From patent US20240010726A1, “LFA-1 SIGNALLING MEDIATOR FOR USE IN CANCER THERAPY” (Universität Basel, priority 2020, published 2024)
